Where “and” joins values, the source holds several entries; their conditions need not be identical. Equal values may be shown once. Read-outs that look alike come from different tables or passages of the source. No end group written: not given here.
How the values were obtained:
[1] = molecular target: DP4.1 (HLA-DPA1*01:03/DPB1*04:01) (Homo sapiens, UniProt P04440+P20036); test: fluorescence polarization competition binding assay, DP4.1
[2] = molecular target: T1, DR2b (DRB1*15:01) (Homo sapiens, UniProt P01903+P01911); test: fluorescence polarization competition binding assay, DR2b; settings: mean of two independent experiments
T1 construct: Soluble DRB1*15:01 and DRB5*01:01 with a covalently linked CLIP peptides; covalently linked CLIP peptide (3C-protease-cleavable linker) (cleaved yes); purchased NIH Tetramer Core Facility / Emory University (a gift of Drs. John Altman and Richard Willis, not bought)

[3] = molecular target: DR2a (DRB5*01:01) (Homo sapiens, UniProt P01903+Q30154); test: fluorescence polarization competition binding assay, DR2a
[4] = fluorescence polarization competition, soluble DP4.1-Clip 250 nM, 25 nM Alexa488 oxytocinase probe peptide, 500 nM HLA-DM, 24 h 37°C, mean of two independent experiments, read-out: Mean IC50, DPA*01:03/DPB1*04:01

Molecule | IC50 [1] | IC50 [1, 4] | further results
CC[C@H](C)[C@H](NC(=O)[C@H](Cc1ccccc1)NC(=O)[C@H](Cc1ccc(O)cc1)NC(=O)[C@H](CC(C)C)NC(=O)CNC(=O)[C@H](Cc1ccc(O)cc1)NC(=O)[C@@H]1CCCN1C(=O)[C@H](C)N)C(=O)N[C@@H](Cc1c[nH]cn1)C(=O)N[C@@H](Cc1ccccc1)C(=O)N[C@@H](CO)C(=O)N[C@@H](Cc1ccc(O)cc1)C(=O)N[C@H](C(=O)N1CCC[C@H]1C(=O)N[C@H](C(=O)N[C@@H](CCCCN)C(=O)O)[C@@H](C)O)C(C)C [Peptide P6] | 80.5 µM |  | 
CC(C)[C@H](NC(=O)[C@H](CC(N)=O)NC(=O)CNC(=O)CNC(=O)[C@H](CO)NC(=O)[C@@H]1CCCN1)C(=O)N[C@H](C(=O)N1CCC[C@H]1C(=O)N[C@@H](Cc1ccc(O)cc1)C(=O)N[C@@H](Cc1ccc(O)cc1)C(=O)N[C@@H](CO)C(=O)N[C@@H](Cc1c[nH]c2ccccc12)C(=O)N[C@@H](Cc1ccccc1)C(=O)N[C@@H](CO)C(=O)NCC(=O)O)C(C)C [Peptide P10] |  |  | IC50 [2]: 0.26 µM; IC50 [3]: 72.9 µM
CC[C@H](C)[C@H](NC(=O)CNC(=O)[C@H](CC(=O)O)NC(=O)[C@H](CCC(N)=O)NC(=O)[C@H](CC(N)=O)NC(=O)[C@H](Cc1ccccc1)NC(=O)[C@H](C)NC(=O)[C@H](CC(C)C)NC(=O)[C@H](CC(C)C)NC(=O)[C@H](Cc1ccc(O)cc1)NC(=O)[C@H](CCC(N)=O)NC(=O)[C@H](CCCNC(=N)N)NC(=O)[C@@H](N)CO)C(=O)N[C@H](C(=O)N[C@@H](Cc1ccccc1)C(=O)N[C@@H](CC(N)=O)C(=O)O)[C@@H](C)CC [Peptide P13] |  |  | IC50 [3]: 43.8 µM
YLAISNELLLTVPTK [Peptide P1] | < 1 µM and 0.41 µM |  | 
CC(C)C[C@H](NC(=O)[C@H](Cc1ccccc1)NC(=O)[C@@H](N)C(C)C)C(=O)N[C@@H](Cc1c[nH]cn1)C(=O)N[C@H](C(=O)N[C@H](C(=O)N[C@@H](Cc1ccc(O)cc1)C(=O)N[C@H](C(=O)N1CCC[C@H]1C(=O)N[C@@H](C)C(=O)N[C@@H](CCC(N)=O)C(=O)N[C@@H](CCC(=O)O)C(=O)N[C@@H](CCCCN)C(=O)N[C@@H](CC(N)=O)C(=O)N[C@@H](Cc1ccccc1)C(=O)N[C@H](C(=O)O)[C@@H](C)O)C(C)C)[C@@H](C)O)C(C)C [S#213 (CoV2)] |  | 242 µM | 
CC(C)C[C@H](NC(=O)[C@H](CCC(=O)O)NC(=O)[C@H](CC(C)C)NC(=O)[C@H](CCCNC(=N)N)NC(=O)[C@H](CO)NC(=O)CNC(=O)[C@H](Cc1ccccc1)NC(=O)[C@H](Cc1ccccc1)NC(=O)[C@H](Cc1ccccc1)NC(=O)[C@H](C)NC(=O)CN)C(=O)N[C@@H](C)C(=O)N[C@@H](CCCCN)C(=O)N[C@H](C(=O)N[C@@H](CCC(N)=O)C(=O)N[C@@H](CC(N)=O)C(=O)O)C(C)C [Peptide P2] | 118 µM |  | 
NRGRQFYEFYNDVKPP [Peptide P14] | 5.14 µM |  | 
CC[C@H](C)[C@H](NC(=O)[C@H](Cc1ccccc1)NC(=O)[C@H](CO)NC(=O)[C@H](CCCNC(=N)N)NC(=O)[C@H](CCCCN)NC(=O)[C@H](CO)NC(=O)[C@@H]1CCCN1C(=O)[C@@H](N)CCCCN)C(=O)N[C@@H](CCC(=O)O)C(=O)N[C@@H](CC(=O)O)C(=O)N[C@@H](CC(C)C)C(=O)N[C@@H](CC(C)C)C(=O)N[C@@H](Cc1ccccc1)C(=O)N[C@@H](CC(N)=O)C(=O)N[C@@H](CCCCN)C(=O)N[C@H](C(=O)O)C(C)C [S#163 (CoV2)] |  | 0.29 µM | 
CC(C)C[C@H](NC(=O)[C@H](CCCCN)NC(=O)[C@@H](NC(=O)[C@H](CCCCN)NC(=O)[C@H](CC(=O)O)NC(=O)[C@H](Cc1ccccc1)NC(=O)[C@H](CC(C)C)NC(=O)[C@H](CC(C)C)NC(=O)[C@H](CC(=O)O)NC(=O)[C@H](CCC(=O)O)NC(=O)[C@H](Cc1ccccc1)NC(=O)[C@H](Cc1ccccc1)NC(=O)[C@H](CO)NC(=O)[C@H](CCCNC(=N)N)NC(=O)[C@H](CO)NC(=O)[C@H](CO)NC(=O)[C@@H](N)CO)C(C)C)C(=O)O [HKU1-151] | 2.57 µM |  | 
CC(C)C[C@H](NC(=O)[C@@H](NC(=O)[C@@H]1CCCN1C(=O)[C@@H](N)CC(N)=O)C(C)C)C(=O)N1CCC[C@H]1C(=O)N[C@@H](Cc1ccccc1)C(=O)N[C@@H](CC(N)=O)C(=O)N[C@@H](CC(=O)O)C(=O)NCC(=O)N[C@H](C(=O)N[C@@H](Cc1ccc(O)cc1)C(=O)N[C@@H](Cc1ccccc1)C(=O)N[C@@H](C)C(=O)N[C@@H](CO)C(=O)N[C@H](C(=O)N[C@@H](CCC(=O)O)C(=O)O)[C@@H](C)O)C(C)C [S#17 (CoV2)] |  | 76 µM | 
CC[C@H](C)[C@H](NC(=O)[C@H](CO)NC(=O)[C@H](CCC(N)=O)NC(=O)[C@H](CO)NC(=O)[C@H](C)NC(=O)[C@@H](NC(=O)[C@@H](N)CO)C(C)C)C(=O)N[C@H](C(=O)N[C@@H](C)C(=O)N[C@@H](Cc1ccc(O)cc1)C(=O)N[C@H](C(=O)N[C@@H](CCSC)C(=O)N[C@@H](CO)C(=O)N[C@@H](CC(C)C)C(=O)NCC(=O)N[C@@H](C)C(=O)O)[C@@H](C)O)[C@@H](C)CC [S#138 (CoV2)] |  | 438 µM | 
CC[C@H](C)[C@H](NC(=O)[C@@H](NC(=O)[C@@H](N)CO)[C@@H](C)CC)C(=O)N[C@@H](C)C(=O)N[C@@H](Cc1ccc(O)cc1)C(=O)N[C@H](C(=O)N[C@@H](CCSC)C(=O)N[C@@H](CO)C(=O)N[C@@H](CC(C)C)C(=O)NCC(=O)N[C@@H](C)C(=O)N[C@@H](CCC(=O)O)C(=O)N[C@@H](CC(N)=O)C(=O)N[C@@H](CO)C(=O)N[C@H](C(=O)N[C@@H](C)C(=O)O)C(C)C)[C@@H](C)O [S#139 (CoV2)] |  | 292 µM | 
CC(C)C[C@H](NC(=O)CNC(=O)[C@H](CO)NC(=O)[C@@H](NC(=O)[C@@H](NC(=O)[C@@H](NC(=O)[C@H](CCCCN)NC(=O)[C@H](CO)NC(=O)[C@H](Cc1ccccc1)NC(=O)[C@H](CC(C)C)NC(=O)[C@H](CC(C)C)NC(=O)[C@H](CC(=O)O)NC(=O)[C@H](CCC(=O)O)NC(=O)[C@H](CC(C)C)NC(=O)[C@H](C)NC(=O)[C@@H](N)CO)C(C)C)C(C)C)[C@@H](C)O)C(=O)NCC(=O)O [NL63-146] | 3.48 µM |  | 
CC[C@H](C)[C@H](N)C(=O)N[C@H](C(=O)N[C@H](C(=O)NCC(=O)N[C@@H](Cc1ccc(O)cc1)C(=O)N[C@@H](CCCNC(=N)N)C(=O)N[C@@H](Cc1ccccc1)C(=O)N[C@H](C(=O)N[C@@H](CC(N)=O)C(=O)N[C@@H](Cc1ccccc1)C(=O)N[C@@H](CCC(=O)O)C(=O)N1CCC[C@H]1C(=O)N[C@@H](Cc1ccccc1)C(=O)N[C@H](C(=O)O)[C@@H](C)O)[C@@H](C)O)[C@@H](C)O)[C@@H](C)O [Peptide P5] | < 1 µM and 0.3 µM |  | 
CC[C@H](C)[C@H](N)C(=O)N[C@@H](Cc1c[nH]cn1)C(=O)N[C@@H](Cc1ccccc1)C(=O)N[C@@H](CO)C(=O)N[C@@H](Cc1ccc(O)cc1)C(=O)N[C@H](C(=O)N1CCC[C@H]1C(=O)N[C@H](C(=O)N[C@@H](CCCCN)C(=O)N[C@@H](Cc1ccc(O)cc1)C(=O)N[C@H](C(=O)N[C@H](C(=O)N[C@@H](C)C(=O)N[C@@H](CCCNC(=N)N)C(=O)N[C@H](C(=O)N[C@@H](CO)C(=O)N1CCC[C@H]1C(=O)NCC(=O)O)C(C)C)[C@@H](C)O)C(C)C)[C@@H](C)O)C(C)C [Peptide P7] | 9.44 µM |  | 
CC(C)C[C@H](NC(=O)[C@H](Cc1ccccc1)NC(=O)[C@@H](NC(=O)[C@@H](NC(=O)CNC(=O)[C@H](Cc1c[nH]cn1)NC(=O)[C@@H]1CCCN1C(=O)[C@H](C)N)C(C)C)C(C)C)C(=O)N[C@@H](Cc1c[nH]cn1)C(=O)N[C@H](C(=O)N[C@H](C(=O)N[C@@H](Cc1ccc(O)cc1)C(=O)N[C@H](C(=O)N1CCC[C@H]1C(=O)N[C@@H](C)C(=O)N[C@@H](CCC(N)=O)C(=O)O)C(C)C)[C@@H](C)O)C(C)C [S#212 (CoV2)] |  | 253 µM | 
CC[C@H](C)[C@H](NC(=O)CNC(=O)[C@H](CC(N)=O)NC(=O)[C@@H](NC(=O)[C@H](Cc1ccccc1)NC(=O)[C@H](CC(=O)O)NC(=O)[C@H](CO)NC(=O)[C@@H](N)CC(C)C)[C@@H](C)CC)C(=O)N[C@@H](Cc1ccccc1)C(=O)N[C@@H](C)C(=O)N[C@@H](CCCCN)C(=O)N[C@H](C(=O)N[C@@H](CCCCN)C(=O)N[C@@H](CC(N)=O)C(=O)N[C@H](C(=O)N[C@@H](CCCCN)C(=O)O)[C@@H](C)O)C(C)C [Peptide P3] | 3.16 µM |  | 
PSASAFFGMSRIGMEVT [N#45 (CoV2)] |  | 544 µM | 
CC[C@H](C)[C@H](NC(=O)[C@H](C)NC(=O)[C@H](CO)NC(=O)[C@H](CCCNC(=N)N)NC(=O)CNC(=O)[C@H](C)NC(=O)[C@@H](NC(=O)[C@@H](N)CCCNC(=N)N)C(C)C)C(=O)N[C@@H](CCC(=O)O)C(=O)N[C@@H](CC(=O)O)C(=O)N[C@H](C(=O)N[C@@H](CC(C)C)C(=O)N[C@@H](Cc1ccccc1)C(=O)N[C@@H](CO)C(=O)N[C@@H](CCCCN)C(=O)N[C@@H](CC(C)C)C(=O)N[C@H](C(=O)O)C(C)C)[C@@H](C)CC [Peptide 229E-115] | 5.99 µM |  | 
CC[C@H](C)[C@H](NC(=O)[C@H](C)NC(=O)[C@H](CO)NC(=O)[C@@H](N)CCCNC(=N)N)C(=O)N[C@@H](CCC(=O)O)C(=O)N[C@@H](CC(=O)O)C(=O)N[C@@H](CC(C)C)C(=O)N[C@@H](CC(C)C)C(=O)N[C@@H](Cc1ccccc1)C(=O)N[C@@H](CC(=O)O)C(=O)N[C@@H](CCCCN)C(=O)N[C@H](C(=O)N[C@@H](CCCCN)C(=O)N[C@@H](CC(C)C)C(=O)N[C@@H](CO)C(=O)O)C(C)C [Peptide P4] | 2.99 µM |  | 
YVYSRVKNLNSSRVPDL [E#9 (CoV2)] |  | 661 µM | 
CC[C@H](C)[C@H](NC(=O)[C@H](Cc1ccccc1)NC(=O)[C@@H](N)CO)C(=O)N[C@@H](CCC(=O)O)C(=O)N[C@@H](CC(=O)O)C(=O)N[C@@H](CC(C)C)C(=O)N[C@@H](CC(C)C)C(=O)N[C@@H](Cc1ccccc1)C(=O)N[C@@H](CC(N)=O)C(=O)N[C@@H](CCCCN)C(=O)N[C@H](C(=O)N[C@H](C(=O)N[C@@H](CC(C)C)C(=O)N[C@@H](C)C(=O)N[C@@H](CC(=O)O)C(=O)N[C@@H](C)C(=O)O)[C@@H](C)O)C(C)C [S#164 (CoV2)] |  | 128 µM | 

From article PMC10409285 (PLOS Pathogens, 2023)
